Read-outs that look alike come from different tables or passages of the source.
What was measured:
[1] = biological target: human CB1 receptor (hCB1) (Homo sapiens, UniProt P21554); assay: cell-based; type: cell-based; conditions: for +/− HCB1: agonist or inverse agonist at hCB1
Method in brief: (§1)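 First, cells in IBMX-containing HEPES-buffered HBSS are raised to elevated cAMP with 2-8 μM NKH-477 for 30 min. Data are normalised to the forskolin and forskolin + 1 μM CP55,940 controls.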

rat CB2 receptor (rCB2) = biological target: T1, rat CB2 receptor (rCB2) (Rattus norvegicus, UniProt Q9QZN9); assay: cell-based; type: cell-based; conditions: for +/− RCB2: agonist or inverse agonist at rCB2
T1 sequence (Q9QZN9 1-360): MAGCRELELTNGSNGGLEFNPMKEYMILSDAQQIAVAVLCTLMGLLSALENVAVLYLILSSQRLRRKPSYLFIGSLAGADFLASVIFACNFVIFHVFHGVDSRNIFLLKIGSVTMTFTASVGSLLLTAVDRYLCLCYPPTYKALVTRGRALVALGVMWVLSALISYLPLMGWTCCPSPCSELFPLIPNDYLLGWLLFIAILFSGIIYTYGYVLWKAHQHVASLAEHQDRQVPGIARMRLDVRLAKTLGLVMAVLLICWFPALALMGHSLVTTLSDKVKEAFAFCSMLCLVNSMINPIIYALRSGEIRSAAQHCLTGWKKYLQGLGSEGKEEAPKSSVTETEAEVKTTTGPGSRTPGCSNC
Method in brief: as §1

Sequence of human CB1 receptor (hCB1) (P21554 whole entry): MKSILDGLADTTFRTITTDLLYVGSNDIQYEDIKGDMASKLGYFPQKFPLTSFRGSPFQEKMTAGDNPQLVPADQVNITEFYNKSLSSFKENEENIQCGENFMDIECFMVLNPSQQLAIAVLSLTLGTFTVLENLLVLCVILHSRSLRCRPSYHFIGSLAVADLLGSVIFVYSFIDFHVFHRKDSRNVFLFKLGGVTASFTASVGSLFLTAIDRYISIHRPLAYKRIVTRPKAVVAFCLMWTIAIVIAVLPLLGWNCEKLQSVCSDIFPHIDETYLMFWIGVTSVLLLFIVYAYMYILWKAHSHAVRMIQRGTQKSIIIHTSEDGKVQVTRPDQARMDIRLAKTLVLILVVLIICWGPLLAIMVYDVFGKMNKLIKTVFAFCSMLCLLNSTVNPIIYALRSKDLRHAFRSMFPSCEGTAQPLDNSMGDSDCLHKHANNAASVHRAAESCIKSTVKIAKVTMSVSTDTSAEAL

Row | Compound | +/− RCB2 (rat CB2 receptor (rCB2)) | EC50 [1] [nM] | further results
1 | CNC(=O)[C@@H](NC(=O)c1nc(/C=C/CCO)n2c1CN(C)CCC2)C(C)(C)C [Compound 514, (S,E)-N-(3,3-dimethyl-1-(methylamino)-1-oxobutan-2-yl)-3-(4-hydroxybut-1-enyl)-8-methyl-6,7,8,9-tetrahydro-5H-imidazo[1,5-a][1,4]diazepine-1-carboxamide] | + |  | +/− HCB1 [1]: +
2 | CNC(=O)[C@@H](NC(=O)c1nc(-c2ccc(F)cc2F)n2c1CN(C)CCC2)C(C)(C)C [Compound 355, (S)-3-(2,4-difluorophenyl)-N-(3,3-dimethyl-1-(methylamino)-1-oxobutan-2-yl)-8-methyl-6,7,8,9-tetrahydro-5H-imidazo[1,5-a][1,4]diazepine-1-carboxamide] | + |  | +/− HCB1 [1]: +
3 | CCN1CCn2c(-c3ccc(Cl)cc3)nc(C(=O)NCCC(C)C)c2C1 [Compound 158, 3-(4-chlorophenyl)-7-ethyl-N-isopentyl-5,6,7,8-tetrahydroimidazo[1,5-a]pyrazine-1-carboxamide] | − | > 10000 | 
4 | CC(C)CN1CCn2c(-c3ccccc3)nc(C(=O)N[C@@H](C)C(C)(C)C)c2C1 [Compound 53, (S)-N-(3,3-dimethylbutan-2-yl)-7-isobutyl-3-phenyl-5,6,7,8-tetrahydroimidazo[1,5-a]pyrazine-1-carboxamide] | − | > 10000 | 
5 | CNC(=O)[C@@H](NC(=O)c1nc(C(C)c2ccccc2)n2c1CN(C)CCC2)C(C)(C)C (stereo partly drawn) [Compound 506, N-((S)-3,3-dimethyl-1-(methylamino)-1-oxobutan-2-yl)-8-methyl-3-(1-phenylethyl)-6,7,8,9-tetrahydro-5H-imidazo[1,5-a][1,4]diazepine-1-carboxamide] | + |  | +/− HCB1 [1]: +
6 | CN1CCCn2c(-c3ccc(F)c(F)c3)nc(C(=O)N[C@H](C(N)=O)C(C)(C)C)c2C1 [Compound 581, (S)-N-(1-amino-3,3-dimethyl-1-oxobutan-2-yl)-3-(3,4-difluorophenyl)-8-methyl-6,7,8,9-tetrahydro-5H-imidazo[1,5-a][1,4]diazepine-1-carboxamide] | + |  | +/− HCB1 [1]: +
7 | Cc1nnc([C@@H](NC(=O)c2nc(-c3ccccc3)n3c2CNCC3)C(C)(C)C)o1 [Compound 200, (S)-N-(2,2-dimethyl-1-(5-methyl-1,3,4-oxadiazol-2-yl)propyl)-3-phenyl-5,6,7,8-tetrahydroimidazo[1,5-a]pyrazine-1-carboxamide] | + | > 10000 | 
8 | CNC(=O)[C@@H](NC(=O)c1nc(C2=CCCCC2)n2c1CN(C)CC2)C(C)(C)C [Compound 256] | + | > 10000 | 
9 | CC(C)C[C@H](NC(=O)c1nc(-c2cc(F)c(F)cc2F)n2c1CN(C)CCC2)C(N)=O [Compound 572, (S)-N-(1-amino-4-methyl-1-oxopentan-2-yl)-8-methyl-3-(2,4,5-trifluorophenyl)-6,7,8,9-tetrahydro-5H-imidazo[1,5-a][1,4]diazepine-1-carboxamide] | + |  | +/− HCB1 [1]: +
10 | CNC(=O)[C@H](CC(C)C)NC(=O)c1nc(-c2ccc(F)c(Cl)c2)n2c1CN(C)CCC2 [Compound 537, (S)-3-(3-chloro-4-fluorophenyl)-8-methyl-N-(4-methyl-1-(methylamino)-1-oxopentan-2-yl)-6,7,8,9-tetrahydro-5H-imidazo[1,5-a][1,4]diazepine-1-carboxamide] | + | > 10000 | 
11 | CC(C)CN1CCn2c(-c3ccccc3)nc(C(=O)N[C@H](C)C3CCCCC3)c2C1 [Compound 163, (R)-N-(1-cyclohexylethyl)-7-isobutyl-3-phenyl-5,6,7,8-tetrahydroimidazo[1,5-a]pyrazine-1-carboxamide] | − | > 10000 | 
12 | CNC(=O)[C@@H](NC(=O)c1nc(-c2ccc(C(=O)N3CCN(C)CC3)cc2)n2c1CN(C)CCC2)C(C)(C)C [Compound 392, (S)-N-(3,3-dimethyl-1-(methylamino)-1-oxobutan-2-yl)-8-methyl-3-(4-(4-methylpiperazin-1-carbonyl)phenyl)-6,7,8,9-tetrahydro-5H-imidazo[1,5-a][1,4]diazepine-1-carboxamide] |  |  | EC50 ([1]; groups >100 nM-10 μM and >10 μM, cAMP, CHO-K1 hCB1, read-out: EC50 HCB1): > 10000 nM; EC50 (rat CB2 receptor (rCB2); groups >100 nM-10 μM and >10 μM, cAMP, CHO-K1 rCB2, read-out: EC50 RCB2): > 10000 nM
13 | CN1CCCn2c(-c3ccc(Cl)cc3F)nc(C(=O)N[C@H](C(=O)N(C)C)C(C)(C)C)c2C1 [Compound 556, (S)-3-(4-chloro-2-fluorophenyl)-N-(1-(dimethylamino)-3,3-dimethyl-1-oxobutan-2-yl)-8-methyl-6,7,8,9-tetrahydro-5H-imidazo[1,5-a][1,4]diazepine-1-carboxamide] |  |  | +/− HCB1 [1]: +; EC50 (rat CB2 receptor (rCB2)): > 10000 nM
14 | CCCCCc1nc(C(=O)N[C@H](C(=O)NC)C(C)(C)C)c2n1CCCN(C)C2 [Compound 484, (S)-N-(3,3-dimethyl-1-(methylamino)-1-oxobutan-2-yl)-8-methyl-3-pentyl-6,7,8,9-tetrahydro-5H-imidazo[1,5-a][1,4]diazepine-1-carboxamide] |  | > 10000 | EC50 (rat CB2 receptor (rCB2)): > 10000 nM
15 | CNC(=O)[C@@H](NC(=O)c1nc(C(O)c2ccccc2)n2c1CN(C)CC2)C(C)(C)C (stereo partly drawn) [Compound 295, N-((S)-3,3-dimethyl-1-(methylamino)-1-oxobutan-2-yl)-3-(hydroxy(phenyl)methyl)-7-methyl-5,6,7,8-tetrahydroimidazo[1,5-a]pyrazine-1-carboxamide] |  | > 10000 | EC50 (rat CB2 receptor (rCB2)): > 10000 nM
16 | CNC(=O)[C@@H](NC(=O)c1nc(-c2ccc(C(F)(F)F)cc2)n2c1CNCC2)C(C)(C)C [Compound 5, (S)-N-(3,3-dimethyl-1-(methylamino)-1-oxobutan-2-yl)-3-(4-(trifluoromethyl)phenyl)-5,6,7,8-tetrahydroimidazo[1,5-a]pyrazine-1-carboxamide] | − | > 10000 | 
17 | COC(=O)N1CCn2c(-c3ccc(Cl)cc3)nc(C(=O)N[C@H](CO)C(C)(C)C)c2C1 [Compound 184, (S)-methyl 3-(4-chlorophenyl)-1-(1-hydroxy-3,3-dimethylbutan-2-ylcarbamoyl)-5,6-dihydroimidazo[1,5-a]pyrazine-7(8H)-carboxylate] | − | > 10000 | 
18 | CNC(=O)[C@@H](NC(=O)c1nc(/C=C/COC)n2c1CN(C)CCC2)C(C)(C)C [Compound 398, (S,E)-N-(3,3-dimethyl-1-(methylamino)-1-oxobutan-2-yl)-3-(3-methoxyprop-1-enyl)-8-methyl-6,7,8,9-tetrahydro-5H-imidazo[1,5-a][1,4]diazepine-1-carboxamide] | + | > 10000 | 
19 | CNC(=O)[C@@H](NC(=O)c1nc(/C=C/CN2CCCCC2)n2c1CN(C)CC2)C(C)(C)C [Compound 287, (S,E)-N-(3,3-dimethyl-1-(methylamino)-1-oxobutan-2-yl)-7-methyl-3-(3-(piperidin-1-yl)prop-1-enyl)-5,6,7,8-tetrahydroimidazo[1,5-a]pyrazine-1-carboxamide] | + | > 10000 | 
20 | C[C@@H](NC(=O)c1nc(-c2ccccc2)n2c1CN(C(=O)C(C)(C)C)CC2)C1CCCCC1 [Compound 133, (R)-N-(1-cyclohexylethyl)-3-phenyl-7-pivaloyl-5,6,7,8-tetrahydroimidazo[1,5-a]pyrazine-1-carboxamide] | − | > 10000 | 
21 | CN1CCCn2c(-c3ccc(F)cc3F)nc(C(=O)N[C@H](C(=O)N(C)C)C(C)(C)C)c2C1 [Compound 563, (S)-3-(2,4-difluorophenyl)-N-(1-(dimethylamino)-3,3-dimethyl-1-oxobutan-2-yl)-8-methyl-6,7,8,9-tetrahydro-5H-imidazo[1,5-a][1,4]diazepine-1-carboxamide] | + |  | +/− HCB1 [1]: +
22 | CNC(=O)[C@@H](NC(=O)c1nc(-c2ccccc2)n2c1CN(Cc1cncnc1)CC2)C(C)(C)C [Compound 62, (S)-N-(3,3-dimethyl-1-(methylamino)-1-oxobutan-2-yl)-3-phenyl-7-(pyrimidin-5-ylmethyl)-5,6,7,8-tetrahydroimidazo[1,5-a]pyrazine-1-carboxamide] | − | > 10000 | 
23 | CCS(=O)(=O)N1CCCn2c(-c3ccccc3)nc(C(=O)N[C@H](C(=O)NC)C(C)(C)C)c2C1 [Compound 461, (S)-N-(3,3-dimethyl-1-(methylamino)-1-oxobutan-2-yl)-8-(ethylsulfonyl)-3-phenyl-6,7,8,9-tetrahydro-5H-imidazo[1,5-a][1,4]diazepine-1-carboxamide] | − | > 10000 | 
24 | C[C@H](NC(=O)c1nc(-c2ccccc2)n2c1CN(C(=O)c1ccccc1)CC2)c1ccccc1 [Compound 125, (S)-7-benzoyl-3-phenyl-N-(1-phenylethyl)-5,6,7,8-tetrahydroimidazo[1,5-a]pyrazine-1-carboxamide] | − | > 10000 | 

Reference: US7517874B2 (priority 2007, dated 2009)
